Measurements from patent publication US20180020668A1, “Agricultural Mixtures” (priority 2015, published 2018).

Experiments:
Type in all cases: in vivo
Rhizoctonia = assay: Corn emergence, vigor and pest infestation study (Example 1, two plantings); conditions: for Plant Emergence: corn, field inoculated with Rhizoctonia, seed treatment, rates per treatment in mg ai/seed; for Plant Emergence / Pest Severity / Pest Incidence / Plant Vigor: about 30 DAP; for Pest Severity: percentage of infected plants; for Pest Incidence / Plant Vigor: rated on a scale of 1 to 9; for Plant Yield: about six months after planting
corn [1] = assay: Another corn plant stand establishment and yield study (Example 3); conditions: seed treatment, rates in mg active[s] per seed
Procedure: Another study was conducted in order to determine the effects of seed treatments on the number of corn plants per acre and yield. The study design was the same as the study described in Example 1. The results of this study can be seen below in Tables 3 and 4.

corn [2] = assay: Corn plant stand establishment and yield study (Example 2); conditions: seed treatment, rates in mg active[s] per seed
Procedure: A study was conducted in order to determine the effects of seed treatments on the number of corn plants per acre and yield. One acre was planted with seeds treated as indicated below in a randomized block design. Treatments were applied to the seeds in a manner known by those of skill in the art. The number of plants was determined for each treatment on four different days before harvest. After harvest, the yield of the plants was determined. The results of this study can be seen below in Tables 2 and 3.

For CN1COCN(Cc2cnc(Cl)s2)C1=N[N+](=O)[O-] [Thiamethoxam, 3-[(2-Chloro-1,3-thiazol-5-yl)methyl]-5-methyl-N-nitro-1,3,5-oxadiazinan-4-imine], the “Plant Emergence” value (Rhizoctonia; first planting) was 19800 plants per acre, the “Plant Emergence” value (Rhizoctonia; second planting) was 25450 plants per acre and the “Pest Severity” value (Rhizoctonia; first planting) was 41.3%. For the same compound, the “Pest Incidence” value (Rhizoctonia; first planting) was 3.8, the “Plant Vigor” value (Rhizoctonia; first planting) was 4.0 and the “Plant Yield” value (Rhizoctonia; first planting) was 60.8 Bu/A. The “Pest Severity” value (Rhizoctonia; second planting) was 16.3%, the “Pest Incidence” value (Rhizoctonia; second planting) was 6.5 and the “Plant Vigor” value (Rhizoctonia; second planting) was 5.5. For the same compound, the “Plant Yield” value (Rhizoctonia; second planting) was 106.7 Bu/A, the “Corn Plant Yield” value (corn [1]) was 172 Bushels/Acre and the “Corn Plant Stand - Number of Plants Per Acre” value (corn [2]; 34 DAP) was 22052 Plants Per Acre. For the same compound, the “Corn Plant Stand - Number of Plants Per Acre” value (corn [2]; 116 DAP) was 20010 Plants Per Acre.
